Experimental data as given in patent US11325892B2, “Compounds and methods for treating cancer” (Mayo Foundation for Medical Education and Research, priority 2014, dated 2022).

What was measured:
FTC cells = assay: Proliferative dose response of thyroid cells; type: cell-based; conditions: 72H treatment
Experimental: (§1) Cells were seeded at 5,000 cells/well in clear-bottom 96-well plates in triplicate in Maintenance Media. Drug treatment was applied at a concentration of 1:1000 in reduced serum (3%) Maintenance Media. After 72 hours, cells were washed with PBS, and stored at −80° C. prior to analysis using CyQuant® Proliferation Analysis Kit (Invitrogen) as per manufacturers' protocol for relative fluorescence units. Alternatively, cells were plated 2×10^5/well in 12-well plates (Midwest Scientific) in triplicate prior to drug treatment. After 120 hour treatment, cell number was established using a Coulter Particle Counter (Beckman). Or, cells were plated (0.5 or 1×10^5/well) in 24-well plates (Midwest Scientific), 3×. After 72 hour treatment, cell number established using Coulter Particle Counter (Beckman). Oleic acid-albumin (Sigma Aldrich) was added to media at 5 μM, and was applied adjuvant to drug treatment. Drug stocks were prepared in DMSO (Sigma) at 1000×. EC50 dosing per cell line was calculated using CalcuSyn® analytical software.
(§2) The efficacy of pharmacologic inhibition of this enzyme on tumor cell proliferation after a 72H treatment was determined, using A939572-a commercially available small molecule SCD1 inhibitor (Xin Z, Zhao H, Serby M D, Liu B, Liu M, Szczepankiewicz B G, Nelson L T, Smith H T, Suhar T S, Janis R S, Cao N, Camp H S, Collins C A, Sham H L, Surowy T K, Liu G. Discovery of piperidine-aryl urea-based stearoyl-CoA desaturase 1 inhibitors. Bioorg Med Chem Lett. 2008; 18(15):4298-302). […] Despite conspicuous SCD1 expression in 4 of the 5 FTC cells tested, no response to A939572 was observed (FIG. 10D).

NT or FA cells = assay: Proliferative dose response of thyroid cells; type: cell-based; conditions: 72H treatment
Experimental: as §1, §2

PTC cells = assay: Proliferative dose response of thyroid cells; type: cell-based; conditions: 72H treatment; 2/5 PTC cells at high doses
Experimental: as §1, §2

[1] = test system: A498, ACHN, and Caki1 cell lines; assay: Oleic acid (OA) rescue assay of cell proliferation in ccRCC cells; type: cell-based; conditions: EC50 dose of compound with OA (5 μg/μL); all three cell lines
Experimental: as §1
A498, ACHN, and Caki1 cell lines were treated with the EC50 dose of each MF-438, ChemBL375265, SSI-1, SSI-4, SSI-3, and SSI-2 with or without concomitant application of OA (5 μg/μL). […] Representative images of A498 cell morphology and density treated with each compound +/−OA are shown in (FIG. 2B).

[2] = test system: THJ16T ATC cell xenograft; assay: THJ16T xenograft model; type: in vivo, female athymic nu/nu mice
Experimental: Formalin-fixed, paraffin-embedded subject tissues were mounted on slides, blocked with Diluent (DakoCytomation) for 30 min, and then probed for SCD (Sigma-Aldrich, #HPA012107). IHC scoring was performed as previously described (von Roemeling C A, Marlow L A, Wei J J, et al. Stearoyl-CoA desaturase 1 is a novel molecular therapeutic target for clear cell renal cell carcinoma. Clin Cancer Res. May 1 2013; 19(9):2368-2380). Cases where insufficient tumor tissue presented were excluded. 20× images were obtained using Scanscope XT and Imagescope software.
1×10^6 THJ16T ATC cells were subcutaneously injected in female athymic nu/nu mice (Harlan Laboratories). Treatment was initiated once tumor volumes reached 50-100 mm^3. MF-438 was suspended in 0.5% carboxymethyl-cellulose containing strawberry drink flavoring(0.1 g/mL) in sterilized H2O at 25 mg/kg in a 100 μl dose, and administered via oral gavage once daily. Carfilzomib was solubilized in DMSO (4% of FC), suspended in 100% corn oil at 4 mg/kg per 50 uL dose and administered via intraperitoneal injection twice weekly on consecutive days. Tumor volume(0.5236[L*W*H]) and body weight were measured 2×/week. N=10 mice/group.
MF-438 was tested in combination with carfilzomib in vivo in a THJ16T xenograft model. […] J Clin Endocrinol Metab. 2010; 95(12):5338-47). […] Saline was administered as necessary. These adverse events resolved 24-48 hours after the second administration of carfilzomib. […] However, no other significant adverse events were observed. […] IHC analysis of tumors resected from each treatment group was performed.

Row | Compound | proliferative response (FTC cells) | proliferative response (NT or FA cells) | proliferative response (PTC cells) | rescue of cell proliferation with OA [1] | tumor response / mean tumor volume course ([2]; THJ16T xenograft) | adverse events ([2]; mice bearing THJ16T xenograft) | survivin expression (IHC) ([2]; mouse, in vivo) | CD31 (IHC), tumor vascularization ([2]; versus placebo control) | cleaved caspase-3 (IHC) ([2]; versus placebo control, only the combination group achieved statistical significance) | HERPUD1 (IHC), marker for ER stress ([2]; versus placebo control, statistically significant combinatorial values)
1 | CNC(=O)c1cccc(NC(=O)N2CCC(Oc3ccccc3Cl)CC2)c1 [A939572] | no response | No response | minimal response |  |  |  |  |  |  | 
2 | Cc1nnc(-c2ccc(N3CCC(Oc4ccccc4C(F)(F)F)CC3)nn2)s1 [MF-438, 2-methyl-5-(6-(4-(2-(trifluoromethyl)phenoxy)piperidin-1-yl)pyridazin-3-yl)-1,3,4-thiadiazole] |  |  |  | Near total rescue of cell proliferation | no tumor response | Discharge from the eye and squinting | induced survivin expression | trend toward decreased CD31 | increased cleaved caspase-3 | Increased HERPUD1
